Assay results taken from ChEMBL document CHEMBL1126565, “Three-dimensional QSAR of human immunodeficiency virus (I) protease inhibitors. 1. A CoMFA study employing experimentally-determined alignment rules” (J Med Chem, 1993).
Starred links: 1 amine or outer side, 2 acyl side, 3 side chain; linkers in the order of their positions; H or OH if unused. Non-standard residues stand in square brackets, D forms with d. Residues, ends and D or L forms follow the SMILES beside them. ξ: configuration not given here. Phe(ψ(S)CH(OH)CH2N)Pro = O=C([C@@H]1CCCN1C[C@H](O)[C@H](Cc1ccccc1)N[*:1])[*:2]; Pheψ(R-CH(OH)CH2N)Pro = O=C([C@@H]1CCCN1C[C@@H](O)[C@H](Cc1ccccc1)N[*:1])[*:2]; Sta = CC(C)C[C@H](N)[C@@H](O)CC(=O)O; ξIva = CCC(C)(N)C(=O)O

Biological target: Human immunodeficiency virus type 1 protease (Human immunodeficiency virus 1, UniProt Q72874)
Assay: Inhibitory potency against HIV-1 protease

SMILES | IC50 [nM]
CC(C)(C)NC(=O)[C@@H]1CCCCN1C[C@@H](O)[C@H](Cc1ccccc1)NC(=O)[C@H](CC(N)=O)NC(=O)c1ccc2ccccc2n1 | 470
CCCCN(C[C@@H](O)[C@H](Cc1ccccc1)NC(=O)[C@H](CC(N)=O)NC(=O)OCc1ccccc1)C(=O)NCC(C)C | 942
CC(C)CNC(=O)N(C)C[C@@H](O)[C@H](Cc1ccccc1)NC(=O)[C@H](CC(N)=O)NC(=O)OCc1ccccc1 | 1500
C[C@@H](NC(=O)N(C[C@@H](O)[C@H](Cc1ccccc1)NC(=O)[C@H](CC(N)=O)NC(=O)OCc1ccccc1)C(C)(C)C)c1ccccc1 | 6500
CCCN(C[C@@H](O)[C@H](Cc1ccccc1)NC(=O)[C@H](CC(N)=O)NC(=O)OCc1ccccc1)C(=O)NCC(C)C | 519
CC(C)(C)OC(=O)N[C@@H](Cc1ccccc1)C(O)C[C@@H](Cc1ccccc1)C(=O)N[C@H]1c2ccccc2C[C@H]1O (stereo partly specified) | 252
CC[C@H](C)[C@H](NC(=O)[C@@H]1CCCN1CC(O)[C@H](Cc1ccccc1)NC(=O)[C@H](CC(N)=O)NC(=O)OCc1ccccc1)C(=O)N[C@H](C(=O)OC)C(C)C (stereo partly specified) | 316
CC[C@@H](C)[C@H](NC(=O)[C@@H](CC(C)C)C(O)C(O)[C@H](CC(C)C)NC(=O)C(Cc1c[nH]cn1)NC(=O)COc1cccc2ccccc12)C(=O)NCc1ccccn1 (stereo partly specified) | 495
C[C@H](NC(=O)N(C[C@@H](O)[C@H](Cc1ccccc1)NC(=O)[C@H](CC(N)=O)NC(=O)OCc1ccccc1)C(C)(C)C)c1ccccc1 | 5090
CCCCN(C[C@@H](O)[C@H](Cc1ccccc1)NC(=O)[C@H](CC(N)=O)NC(=O)c1ccc2ccccc2n1)C(=O)NCC(C)C | 126
CC(C)(C)NC(=O)[C@@H]1CCCN1C[C@H](O)[C@H](Cc1ccccc1)NC(=O)[C@H](CC(N)=O)NC(=O)OCc1ccccc1 | 210
CC(C)(C)NC(=O)[C@@H]1C[C@@H]2CCCC[C@@H]2CN1C[C@@H](O)[C@H](Cc1ccccc1)NC(=O)[C@H](CC(N)=O)NC(=O)OCc1ccccc1 | 316
CC[C@H](C)[C@H](NC(=O)[C@@H]1C[C@@H]2CCCC[C@@H]2CN1C[C@@H](O)[C@H](Cc1ccccc1)NC(=O)[C@H](CC(N)=O)NC(=O)OCc1ccccc1)C(=O)N[C@H](C(=O)OC)C(C)C | 316
CC[C@H](C)CNC(=O)[C@@H](C(C)C)C(O)C(O)[C@H](CC(C)C)NC(=O)[C@H](Cc1c[nH]cn1)NC(=O)[C@H](Cc1ccccc1)NC(=O)OC(C)(C)C (stereo partly specified) | 809
CC[C@H](C)CNC(=O)[C@@H](C(C)C)C(O)C(O)[C@H](Cc1c[nH]cn1)NC(=O)COc1ccccc1 (stereo partly specified) | 809
COC(=O)[C@@H](NC(=O)[C@H](CC(C)C)NC(=O)[C@@H]1CCCN1C[C@H](O)[C@H](Cc1ccccc1)NC(=O)[C@H](CC(N)=O)NC(=O)OC(C)(C)C)C(C)C | 849
CC(C)(C)N(C[C@@H](O)[C@H](Cc1ccccc1)NC(=O)[C@H](CC(N)=O)NC(=O)OCc1ccccc1)C(=O)NCc1ccncc1 | 105
CC(C)CNC(=O)N(C[C@@H](O)[C@H](Cc1ccccc1)NC(=O)[C@H](CC(N)=O)NC(=O)OCc1ccccc1)C(C)C | 260
CC(C)(C)OC(=O)N[C@@H](CC(N)=O)C(=O)N[C@@H](Cc1ccccc1)C(O)C[C@@H](Cc1ccccc1)C(=O)N[C@H]1c2ccccc2C[C@H]1O (stereo partly specified) | 295
CC(C)(C)OC(=O)[C@@H]1CCCN1CC(O)[C@H](Cc1ccccc1)NC(=O)[C@H](CC(N)=O)NC(=O)OCc1ccccc1 (stereo partly specified) | 140
CCN(C[C@@H](O)[C@H](Cc1ccccc1)NC(=O)[C@H](CC(N)=O)NC(=O)OCc1ccccc1)C(=O)NCC(C)C | 330
CC(C)(C)OC(=O)[C@@H]1CCCN1C[C@H](O)[C@H](Cc1ccccc1)NC(=O)OCc1ccccc1 | 6500
COC(=O)[C@@H](NC(=O)[C@H](CC(C)C)NC(=O)[C@@H]1CCCN1C[C@H](O)[C@H](Cc1ccccc1)NC(=O)[C@H](CC(N)=O)NC(=O)[C@H](CC(C)C)NC(=O)[C@H](CO)NC(C)=O)C(C)C (Ac-SLN[Phe(ψ(S)CH(OH)CH2N)Pro]LV-OMe) | 65
CC[C@H](C)[C@H](N)C(=O)N[C@@H](CCC(N)=O)C(=O)N[C@@H](CC(C)C)[C@@H](O)CC(=O)N[C@@H](CC(N)=O)C(=O)N[C@@H](Cc1ccccc1)C(=O)N[C@@H](CO)C(=O)O (H-IQ[Sta]NFS-OH) | 12000
CCC(C)(NC(=O)[C@@H](NC(=O)[C@@H](NC(=O)C[C@H](O)[C@H](CC(C)C)NC(=O)[C@H](C)NC(=O)C[C@H](O)[C@@H](N)CC(C)C)C(C)C)C(C)C)C(=O)O (stereo partly specified) (H-[Sta]A[Sta]VV[ξIva]-OH) | 12000

Compounds with a lower IC50, results first:

IC50 [nM] | SMILES
13 | CC[C@H](C)[C@H](NC(=O)[C@@H]1CCCN1C[C@@H](O)[C@H](Cc1ccccc1)NC(=O)[C@H](CC(N)=O)NC(=O)OCc1ccccc1)C(=O)N[C@H](C(=O)OC)C(C)C
5 | CC(C)(C)N(C[C@@H](O)[C@H](Cc1ccccc1)NC(=O)[C@H](CC(N)=O)NC(=O)c1ccc2ccccc2n1)C(=O)NCC1CCCCC1
29 | CC(C)(C)N(C[C@@H](O)[C@H](Cc1ccccc1)NC(=O)[C@H](CC(N)=O)NC(=O)OCc1ccccc1)C(=O)NCC1CCCCC1
3 | CC(C)CCNC(=O)N(C[C@@H](O)[C@H](Cc1ccccc1)NC(=O)[C@H](CC(N)=O)NC(=O)c1ccc2ccccc2n1)C(C)(C)C
2 | CC(C)(C)NC(=O)C1CCCCN1C[C@H](O)[C@H](Cc1ccccc1)NC(=O)C(CC(N)=O)NC(=O)c1ccc2ccccc2n1 (stereo partly specified)
35 | CC(C)CNC(=O)N(C[C@@H](O)[C@H](Cc1ccccc1)NC(=O)[C@H](CC(N)=O)NC(=O)OCc1ccccc1)C(C)(C)C
3 | CC(C)(C)N(C[C@@H](O)[C@H](Cc1ccccc1)NC(=O)[C@H](CC(N)=O)NC(=O)c1ccc2ccccc2n1)C(=O)NCc1ccccc1
23 | CC(C)(C)NC(=O)C1CCCCN1C[C@H](O)[C@H](Cc1ccccc1)NC(=O)C(CC#N)NC(=O)OCc1ccccc1 (stereo partly specified)
19 | CC(C)(C)N(C[C@@H](O)[C@H](Cc1ccccc1)NC(=O)[C@H](CC(N)=O)NC(=O)c1ccc2ccccc2n1)C(=O)NCc1ccncc1
19 | CC(C)(C)N(C[C@@H](O)[C@H](Cc1ccccc1)NC(=O)[C@H](CC(N)=O)NC(=O)OCc1ccccc1)C(=O)NCc1ccccc1
2.3 | CC[C@H](C)[C@H](NC(=O)[C@@H]1CCCN1CC(O)[C@H](Cc1ccccc1)NC(=O)[C@H](CC(N)=O)NC(=O)c1ccc2ccccc2n1)C(=O)N[C@@H](Cc1ccccc1)C(=O)OC (stereo partly specified)
49.5 | CC[C@H](C)[C@H](NC(=O)[C@@H](C(C)C)C(O)C(O)[C@H](CC1CCCCC1)NC(=O)CC1CCCCC1)C(=O)NCc1ccccn1 (stereo partly specified)
4 | CC[C@H](C)[C@H](NC(=O)[C@@H]1CCCN1C[C@@H](O)[C@H](Cc1ccccc1)NC(=O)[C@H](CC(N)=O)NC(=O)OCc1ccccc1)C(=O)N[C@@H](Cc1ccccc1)C(=O)OC
1.8 | CC[C@H](C)[C@H](NC(=O)[C@@H](C(C)C)C(O)C(O)[C@H](CC1CCCCC1)NC(=O)[C@H](Cc1c[nH]cn1)NC(=O)COc1cccc2ccccc12)C(=O)NCc1ccccn1 (stereo partly specified)
11.2 | CC[C@H](C)[C@H](NC(=O)[C@@H](CC(C)C)C(O)C(O)[C@H](CC1CCCCC1)NC(=O)[C@H](Cc1c[nH]cn1)NC(=O)COc1cccc2ccccc12)C(=O)NCc1ccccn1 (stereo partly specified)
15.7 | CC[C@H](C)[C@H](NC(=O)[C@H](CC(C)C)C(O)C(O)[C@H](CC(C)C)NC(=O)[C@H](Cc1c[nH]cn1)NC(=O)COc1cccc2ccccc12)C(=O)NCc1ccccn1 (stereo partly specified)

IC50 [nM] | SMILES
58.5 | CC[C@H](C)[C@H](NC(=O)[C@@H](CC1CCCCC1)C(O)C(O)[C@H](CC1CCCCC1)NC(=O)[C@H](Cc1c[nH]cn1)NC(=O)COc1cccc2ccccc12)C(=O)NCc1ccccn1 (stereo partly specified)
63 | CC[C@H](C)[C@H](NC(=O)[C@@H](C(C)C)C(O)C(O)[C@H](CC(C)C)NC(=O)[C@H](Cc1c[nH]cn1)NC(=O)[C@H](Cc1ccccc1)NC(=O)OC(C)(C)C)C(=O)NCc1ccccn1 (stereo partly specified)
11.2 | CC[C@H](C)[C@H](NC(=O)[C@@H](C(C)C)C(O)C(O)[C@H](CC(C)C)NC(=O)[C@H](Cc1c[nH]cn1)NC(=O)COc1cccc2ccccc12)C(=O)NCc1ccccn1 (stereo partly specified)
4.5 | CC[C@H](C)[C@H](NC(=O)[C@@H](C(C)C)C(O)C(O)[C@H](CC1CCCCC1)NC(=O)[C@H](Cc1c[nH]cn1)NC(=O)COc1ccccc1)C(=O)NCc1ccccn1 (stereo partly specified)
11.2 | CC[C@H](C)[C@H](NC(=O)[C@@H](C(C)C)C(O)C(O)[C@H](Cc1c[nH]cn1)NC(=O)COc1ccccc1)C(=O)NCc1ccccn1 (stereo partly specified)
24.8 | CC[C@H](C)[C@H](NC(=O)[C@@H](C(C)C)C(O)C(O)[C@H](CC1CCCCC1)NC(=O)[C@H](Cc1c[nH]cn1)NC(=O)CN)C(=O)NCc1ccccn1 (stereo partly specified)
8.99 | CC[C@H](C)[C@H](NC(=O)[C@@H](C(C)C)C(O)C(O)[C@H](CC1CCCCC1)NC(=O)[C@H](Cc1c[nH]cn1)NC(=O)CO)C(=O)NCc1ccccn1 (stereo partly specified)
23 | CC(C)(C)OC(=O)[C@@H]1CCCN1C[C@H](O)[C@H](Cc1ccccc1)NC(=O)[C@H](CC(N)=O)NC(=O)c1ccc2ccccc2n1
27 | CC[C@H](C)[C@H](NC(=O)[C@@H](Cc1ccccc1)[C@@H](O)[C@H](O)[C@H](Cc1ccccc1)NC(=O)[C@H](Cc1c[nH]cn1)NC(=O)COc1cccc2ccccc12)C(=O)NCc1ccccn1
16 | COC(=O)[C@@H](NC(=O)[C@H](CC(C)C)NC(=O)[C@@H]1CCCN1C[C@@H](O)[C@H](Cc1ccccc1)NC(=O)[C@H](CC(N)=O)NC(=O)OC(C)(C)C)C(C)C
6.01 | CC(C)CNC(=O)N(C[C@@H](O)[C@H](Cc1ccccc1)NC(=O)[C@H](CC(N)=O)NC(=O)c1ccc2ccccc2n1)C(C)(C)C
13 | CC(C)CCNC(=O)N(C[C@@H](O)[C@H](Cc1ccccc1)NC(=O)[C@H](CC(N)=O)NC(=O)OCc1ccccc1)C(C)(C)C
12 | CSCC(NC(=O)c1ccc2ccccc2n1)C(=O)N[C@@H](Cc1ccccc1)[C@@H](O)CN1CCCCC1C(=O)NC(C)(C)C (stereo partly specified)
2.7 | CC(C)(C)NC(=O)[C@@H]1C[C@@H]2CCCC[C@@H]2CN1C[C@H](O)[C@H](Cc1ccccc1)NC(=O)[C@H](CC(N)=O)NC(=O)OCc1ccccc1
3.4 | COC(=O)[C@@H](NC(=O)[C@H](CC(C)C)NC(=O)[C@@H]1CCCN1C[C@@H](O)[C@H](Cc1ccccc1)NC(=O)[C@H](CC(N)=O)NC(=O)[C@H](CC(C)C)NC(=O)[C@H](CO)NC(C)=O)C(C)C (Ac-SLN[Pheψ(R-CH(OH)CH2N)Pro]LV-OMe)
